This is an account of results in patent US11820782B2, “Salt forms of amino pyrazine purine based selective kinase inhibitor” (FTG BIO LLC, priority 2018, dated 2023).

The term Solubility denotes the concentration that dissolves in the medium under given conditions. A high value points to much dissolved substance. By Tmax is commonly meant the time from dosing to the highest level. What is called Cmax is the highest concentration seen after dosing. As usually defined, the efflux ratio is the permeability from basolateral to apical divided by that in the opposite direction, in the common usage. A word on the Papp A→B: it is the apparent permeability from the apical to the basolateral side of a cell layer. Usually Papp B→A stands for how fast a substance crosses the layer from the basolateral side. A word on the AUC: it is the area under the concentration-time curve, a measure of exposure. Usually IC50 stands for the concentration at which inhibition is half-maximal. The low end stands for higher potency, the high end for lower potency.

Like-named read-outs stand apart in the source and are kept apart here.

Data set [1] can be described thus: Microsomal stability, RLM. Conditions: rat liver microsomes. In kind it is in vitro ADME. The procedure: (§1) All in vitro experiments like protein binding, microsomal stability, cell cytotoxicity were performed as per study protocols of respective experiments.
(Liver microsomes are a subcellular fraction often used to study metabolism.)

The nature of data set [2]: Equilibrium solubility in pH 6.8 0.01M phosphate buffer by HPLC. In kind it is physicochemical. Conditions: pH6.8 0.01M potassium dihydrogen phosphate buffer.
Data set [3] has as its system Caco-2.
A short description of data set [4]: Qualitative solubility of FT1518 in aqueous media containing counterions. In kind it is physicochemical. An excerpt: Solubility of FT-1518 was checked in various counter ion solutions before performing salt screening to obtain an estimate of feasibility of salt formation in the respective counter ions.
Data set [5] in a line: Intravenous and per oral pharmacokinetics in male Sprague Dawley rats. The class given is in vivo, Sprague Dawley (SD) rats. Conditions: for Bioavailability (% F): PO dose (10 mg/kg) vs IV 5 mg/kg. The procedure: The husbandry conditions were maintained as described in animal facility SOPs during the study period. Animals procured were quarantined for 7 days followed by acclimatization for 5 days. The study was carried out for two days. Male Balb/c mice of age 10-12 weeks (18-25 g) and male Sprague Dawley rats 8-10 weeks (220-280 g) were used. The food was with held for a period of 4-12 hr prior to dosing and returned to all animals 4h post dosing and water supplied ad libitum. The doses of FT1518 were as follows: Mice: 10 mg/kg intravenous (i.v) and 50 mg/kg oral (p.o); rat—5 mg/kg intravenous (i.v) and 10 mg/kg oral (p.o). The formulation used in i.v and p.o studies were 10% dimethylsulfoxide (DMSO)+30% polyethyleneglycol 400 (PEG400)+60% water and 0.5% methylcellulose (MC)+0.1% tween 80. Blood was collected at the predetermined time points in mice (cardiac puncture) and Jugular vein (rats) over a period of 24h in eppendorf tubes containing K2EDTA as anticoagulant. The plasma was isolated from the blood and stored at −80° C. until bioanalysis.
Intravenous and Per Oral Pharmacokinetic Profile of FT1518 (Base); FT1518-Esylate Salt and FT1518-Oxalate Salt in Male Sprague Dawley (SD) Rats Species: SD rats Gender: Male Dose: IV (5 mg/kg), Single dose • PO (10 mg/kg), single dose Formulation: • IV—DMSO: PEG400:Water (10:30:60 v/v) • PO— 0.5% methylcellulose and 0.1% Tween 80 in water Sampling Time Points: • IV: 5 min, 15 min, 30 min, 1 h, 2, 4, 8 and 24 h post dose • PO: 10 min, 15 min, 30 min, 1 h, 2, 4, 8 and 24 h post dose. PK analysis: Phoenix software (Pharsight product). Noncompartmental Analysis (NCA) was used to estimate the PK parameters

Data set [6] relates to Human Plasma. The data set is described as follows: Plasma protein binding, human. The class given is in vitro ADME. Conditions: for % Bound, Human Plasma: 10 μM (n = 4). The procedure:
as §1

Data set [7] can be described thus: Plasma protein binding, mouse. In kind it is in vitro ADME. Conditions: mouse, plasma, 10 μM (n = 4); read-out: % Bound, Mouse plasma (converted). The method, then: as §1
Data set [8] is described as follows: Hepatic clearance, human. The class given is in vitro ADME.
A short description of data set [9]: Hepatic clearance, mouse. The class given is in vitro ADME.
Data set [10] can be described thus: Caco-2 permeability. Conditions: human, Caco-2. In general terms: Passage across Caco-2 layers is used to estimate intestinal permeability.
The test system of data set [11] is Caco-2. Nature of the data set: Caco-2 permeability.
A short description of data set [12]: Solid state stability of physical forms at 40° C./75% RH by pXRD. Conditions: 40° C./75% RH open, 7 days. In kind it is physicochemical. The procedure:
Physical forms crystallized from various methods of crystallization were exposed to 40° C./75% RH for 7 days in open condition to understand the physical stability of the new physical forms in the presence of heat and humidity and also to know if there is any form conversion in the stable forms of Esylate and oxalate salts of FT-1518.

Data set [13] in a line: Hepatic clearance, dog. The class given is in vitro ADME. Conditions: dogs.
A short description of data set [14]: Plasma protein binding, human. In kind it is in vitro ADME. Conditions: human, plasma, 10 μM (n = 4); read-out: % Bound, Human Plasma (converted). The method, then: as §1
A short description of data set [15]: Hepatic clearance, rat. The class given is in vitro ADME.
In data set [16] the test system is prostate cancer (PC-3). Nature of the data set: In vitro assay, PC-3. The class given is cell-based. Conditions: prostate cancer (PC-3) line. The method, then: as §1
Where [17] appears, read: IV dose (5 mg/kg), single dose, male SD rats.
The mark [18] stands for this setting: PO dose (10 mg/kg), single dose, male SD rats, 10 mg/kg.
Setting [19] is: sample from cooling crystallization in ethanol.
Setting [20] is: sample from slurry transformation in ethyl acetate.
The mark [21] stands for this setting: sample from solvent evaporation in acetonitrile.
The mark [22] stands for this setting: sample from solvent evaporation in ethanol.

Consider `CCC(CC)n1cnc2c(-c3cnc(N)cn3)nc(N3CC4CCC(C3)O4)nc21` [FT-1518 base], for which, in data set [1] (3 μM (n = 3)), the “Invitro T1/2, RLM” value is over 1 h. In data set [1], the “stability in RLM” value is “✓ FT1518, FT 1518-Esylate and FT1518-Oxalate was highly stable in PHLM and RLM”. In data set [2] (listed as Free base of FT-1518), the “Solubility in pH 6.8 buffer” value is reported as 0.02 mg/mL. For the same compound, in [3], the “Apparent permeability (Papp) A to B” value worked out at 215.71 ± 17.67 nm/s; the “Apparent permeability (Papp) B to A” value worked out at 309.40 ± 4.28 nm/s; the “permeability in Caco-2 assay” value was “✓ FT1518 base, FT1518-Esylate and FT1518-Oxalate showed high permeability in Caco-2 assay. Efflux ratio of <2 indicates compounds that the compounds may not be substrates of P-gp or BCRP efflux transporters”. The Solubility in data set [4] (0.04N phthalic acid) is on record as under 1 mg/mL. Moreover, the Solubility in data set [4] (0.1N H2SO4) was over 100 mg/mL. In [4] (0.1N adipic acid), this compound showed a Solubility of under 1 mg/mL. Also, in data set [5] (IV 5 mg/kg, SD rats), the “clearance as % of SD rat liver blood flow” value is recorded as about 42%. In addition, in [5] (setting [17]), the “AUC0-∞” value was 3.905 ± 1.334 µg·h/mL and the “Cl” value is on record as 1.4 ± 0.6 L/h/kg. In addition, in data set [5] (male SD rats), the “Bioavailability (% F)” value was 44%. Further, the Tmax in data set [5] (PO dose (10 mg/kg), single dose, male SD rats) came out at 0.5 h. In addition, in [5] (setting [18]), the “AUC (AU C0^.oo)” value worked out at 3.422 ± 0.684 µg·h/mL and the Cmax was 1.592 µg/mL. Further, in data set [6], the “plasma protein binding, human plasma” value is “✓ FT1518, FT1518-Esylate and FT1518-Oxalate showed moderate plasma protein binding in both mouse and human plasma”; the “% Bound, Human Plasma” value amounted to 97.32%.

Regarding `CCC(CC)n1cnc2c(-c3cnc(N)cn3)nc(N3CC4CCC(C3)O4)nc21` [FT-1518-Esylate], the figures for the fraction unbound at 10 μM in data set [7] and in data set [14] were 0.0854 and 0.0298, respectively. For the same compound, the “hepatic clearance in terms of liver blood flow” value in [8] was “moderate”; in data set [9], “high”; in data set [13], “low”; in [15], “low”. The half-life at 3 μM in data set [1] (3 μM (n = 3), read-out: Invitro T1/2, RLM) was over 1 h. Also, the “stability in RLM” value in data set [1] is “✓ FT1518, FT 1518-Esylate and FT1518-Oxalate was highly stable in PHLM and RLM”. For the same compound, the “Solubility in pH 6.8 buffer” value in data set [2] was 77.98 mg/mL. Besides, the efflux ratio at 10 μM in [10] amounted to 1.8. The Papp A→B at 10 μM in data set [10] (Caco-2, Apparent permeability (Papp) A to B, 10 μM (n = 3)) is 216 ± 8.87 nm/s. In [10] (Caco-2, Apparent permeability (Papp) B to A, 10 μM (n = 3)), the apparent permeability from basolateral to apical (Papp B→A) at 10 μM worked out at 383 ± 4.26 nm/s. The “permeability in Caco-2 assay” value in [11] was “✓ FT1518 base, FT1518-Esylate and FT1518-Oxalate showed high permeability in Caco-2 assay. Efflux ratio of <2 indicates compounds that the compounds may not be substrates of P-gp or BCRP efflux transporters”. Further, the “solid state stability (pXRD form)” value is “remained the same” in data set [12] (setting [19]); “Same as initial salt” in data set [12] (sample from slurry transformation in THF: toluene (1:1)); “Same as initial salt” in [12] (sample from slurry transformation in THF); 40 °C slurry converted in data set [12] (setting [20]); “Same as initial salt” in [12] (sample from slurry transformation in toluene); “Same as initial salt” in data set [12] (sample from solvent evaporation in THF:water (9:1)). Moreover, the entries for the “solid state stability (pXRD form)” value in data set [12] (setting [21]), in data set [12] (setting [22]) and in data set [12] (sample from solvent evaporation in methanol) were “Same as initial salt”, “formed Same as initial salt” and “Same as initial salt”, respectively. Moreover, the “Bioavailability (% F)” value in [5] (male SD rats) was over 100%. In addition, the AUC in data set [5] (male, Sprague Dawley, rat, plasma, po, 10 mg/kg, PO dose (10 mg/kg), single dose, male SD rats, read-out: AUC (AU C0^.oo)) was determined as 9.68 µg·h/mL. Further, the Cmax in data set [5] (male, Sprague Dawley, rat, plasma, po, 10 mg/kg, PO dose (10 mg/kg), single dose, male SD rats, read-out: Cmax) worked out at 1.77 µg/mL. Further, the “plasma protein binding, human plasma” value in [6] was “✓ FT1518, FT1518-Esylate and FT1518-Oxalate showed moderate plasma protein binding in both mouse and human plasma”.

As for `CCC(CC)n1cnc2c(-c3cnc(N)cn3)nc(N3CC4CCC(C3)O4)nc21` [FT-1518-Oxalate], the “hepatic clearance in terms of liver blood flow” value in data set [8] is recorded as “moderate”; in [9], “moderate”; in data set [13], “low”; in [15] it was “moderate”. In data set [16], this compound registered an IC50 of 183 µM. The “Invitro T1/2, RLM” value in data set [1] (3 μM (n = 3)) was over 1 h. The “stability in RLM” value in data set [1] is “✓ FT1518, FT 1518-Esylate and FT1518-Oxalate was highly stable in PHLM and RLM”. The “Solubility in pH 6.8 buffer” value in data set [2] is reported as 10.21 mg/mL. Moreover, the “permeability in Caco-2 assay” value in data set [11] was “✓ FT1518 base, FT1518-Esylate and FT1518-Oxalate showed high permeability in Caco-2 assay. Efflux ratio of <2 indicates compounds that the compounds may not be substrates of P-gp or BCRP efflux transporters”. For the same compound, in data set [11] (10 μM (n = 3), Caco-2), the “Apparent permeability (Papp) A to B” value stood at 232.07 ± 18.01 nm/s. In addition, the “Apparent permeability (Papp) B to A” value in data set [11] (10 μM (n = 3), Caco-2) amounted to 292.03 ± 14.82 nm/s. The “solid state stability (pXRD form)” value is given as “Same as initial salt” in data set [12] (setting [19]); “Same as initial salt” in data set [12] (sample from cooling crystallization in tetrahydrofuran); “remained same” in [12] (sample from slurry transformation in ethyl acetate: water (9:1)); “Same as initial” in [12] (setting [20]); “Same as initial” in [12] (sample from slurry transformation in hexane); “Same as initial salt form” in [12] (sample from solvent evaporation in acetone). Besides, the figures for the “solid state stability (pXRD form)” value in data set [12] (setting [21]), in data set [12] (setting [22]) and in [12] (sample from solvent evaporation in tetrahydrofuran) were “Same as initial salt”, “Partial conversion of new” and “Major conversion of new”, respectively. Moreover, in [5] (male SD rats), the “Bioavailability (% F)” value is listed as 68%. In [5] (setting [18]), this compound came in with a Cmax of 1.98 µg/mL. For the same compound, the “plasma protein binding, human plasma” value in [6] is “✓ FT1518, FT1518-Esylate and FT1518-Oxalate showed moderate plasma protein binding in both mouse and human plasma”. Further, the “% Bound, Human Plasma” value in data set [6] came out at 95.54%.
